ChEMBL document CHEMBL1201862, “PubChem BioAssay data set” (2004)
Calls of active or inactive are those of the source. For most assays here, no stated cut-off is given here; in the data, actives have a measured EC50 and inactives only a lower limit.

Tests used:
[1] = biological target: T1, Corticotropin-releasing factor receptor 2/Corticotropin-releasing factor-binding protein (Homo sapiens, UniProt P24387+Q13324); experiment: activators of CRF receptor 2 with binding protein – uHTS hits, confirmation (AID 602473); format: functional; details: read-out: EC50_Mean
T1 sequence (Q13324 whole entry): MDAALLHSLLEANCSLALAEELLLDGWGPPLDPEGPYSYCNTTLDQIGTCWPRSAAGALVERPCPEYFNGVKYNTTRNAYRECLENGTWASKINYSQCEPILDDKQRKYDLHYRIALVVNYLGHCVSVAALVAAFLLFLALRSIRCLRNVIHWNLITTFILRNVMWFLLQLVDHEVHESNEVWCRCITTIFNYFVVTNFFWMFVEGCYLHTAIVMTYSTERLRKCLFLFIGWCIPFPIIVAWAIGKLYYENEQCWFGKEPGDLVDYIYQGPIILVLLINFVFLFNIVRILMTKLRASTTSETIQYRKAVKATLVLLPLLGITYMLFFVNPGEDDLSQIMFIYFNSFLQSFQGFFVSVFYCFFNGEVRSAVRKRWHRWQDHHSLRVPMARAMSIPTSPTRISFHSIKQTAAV
T1 sequence (P24387 whole entry): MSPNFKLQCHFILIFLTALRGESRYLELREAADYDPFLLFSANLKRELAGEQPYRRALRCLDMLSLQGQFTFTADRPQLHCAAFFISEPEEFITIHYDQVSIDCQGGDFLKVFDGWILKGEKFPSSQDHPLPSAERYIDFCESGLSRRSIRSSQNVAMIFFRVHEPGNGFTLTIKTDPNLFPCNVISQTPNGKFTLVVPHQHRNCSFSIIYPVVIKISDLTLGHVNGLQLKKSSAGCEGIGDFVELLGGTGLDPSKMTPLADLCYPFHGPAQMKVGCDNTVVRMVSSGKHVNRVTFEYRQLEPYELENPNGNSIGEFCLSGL

Protein RecA = biological target: T2, Protein RecA (Mycobacterium tuberculosis, UniProt P9WHJ3); experiment: Fluorescence Cell-Free Homogeneous Dose Retest to Identify Inhibitors of RecA-Intein Splicing Activity. [Related pubchem assays (depositor defined):AID2097, AID2223, AID489010, AID492950]; format: functional
T2 sequence (P9WHJ3 whole entry): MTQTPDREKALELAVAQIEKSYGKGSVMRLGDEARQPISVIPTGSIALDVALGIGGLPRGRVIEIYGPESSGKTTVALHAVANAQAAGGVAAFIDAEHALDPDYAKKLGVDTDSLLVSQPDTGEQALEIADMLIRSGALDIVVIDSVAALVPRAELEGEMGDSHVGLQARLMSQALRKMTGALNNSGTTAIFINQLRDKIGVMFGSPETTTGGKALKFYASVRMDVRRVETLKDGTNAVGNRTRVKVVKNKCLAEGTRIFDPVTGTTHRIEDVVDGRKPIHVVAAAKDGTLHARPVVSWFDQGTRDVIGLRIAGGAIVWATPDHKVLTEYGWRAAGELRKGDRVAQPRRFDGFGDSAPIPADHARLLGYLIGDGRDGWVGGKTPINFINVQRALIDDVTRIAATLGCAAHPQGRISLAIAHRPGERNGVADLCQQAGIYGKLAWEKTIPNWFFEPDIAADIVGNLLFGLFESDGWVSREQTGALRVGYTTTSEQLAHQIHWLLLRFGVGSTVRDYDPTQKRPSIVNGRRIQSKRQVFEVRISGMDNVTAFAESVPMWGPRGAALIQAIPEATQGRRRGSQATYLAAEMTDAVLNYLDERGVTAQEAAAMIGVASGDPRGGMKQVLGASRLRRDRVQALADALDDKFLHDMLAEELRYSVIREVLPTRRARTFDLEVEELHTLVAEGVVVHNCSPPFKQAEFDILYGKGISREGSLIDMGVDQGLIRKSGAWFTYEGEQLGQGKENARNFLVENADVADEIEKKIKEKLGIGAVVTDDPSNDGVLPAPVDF

[2] = biological target: T3, Replicative DNA helicase DnaB (Mycobacterium tuberculosis, UniProt P9WMR3); experiment: DnaB intein splicing inhibitors, dose response, biochemical, cell-free fluorescence (AID 449749); format: functional
T3 sequence (P9WMR3 whole entry): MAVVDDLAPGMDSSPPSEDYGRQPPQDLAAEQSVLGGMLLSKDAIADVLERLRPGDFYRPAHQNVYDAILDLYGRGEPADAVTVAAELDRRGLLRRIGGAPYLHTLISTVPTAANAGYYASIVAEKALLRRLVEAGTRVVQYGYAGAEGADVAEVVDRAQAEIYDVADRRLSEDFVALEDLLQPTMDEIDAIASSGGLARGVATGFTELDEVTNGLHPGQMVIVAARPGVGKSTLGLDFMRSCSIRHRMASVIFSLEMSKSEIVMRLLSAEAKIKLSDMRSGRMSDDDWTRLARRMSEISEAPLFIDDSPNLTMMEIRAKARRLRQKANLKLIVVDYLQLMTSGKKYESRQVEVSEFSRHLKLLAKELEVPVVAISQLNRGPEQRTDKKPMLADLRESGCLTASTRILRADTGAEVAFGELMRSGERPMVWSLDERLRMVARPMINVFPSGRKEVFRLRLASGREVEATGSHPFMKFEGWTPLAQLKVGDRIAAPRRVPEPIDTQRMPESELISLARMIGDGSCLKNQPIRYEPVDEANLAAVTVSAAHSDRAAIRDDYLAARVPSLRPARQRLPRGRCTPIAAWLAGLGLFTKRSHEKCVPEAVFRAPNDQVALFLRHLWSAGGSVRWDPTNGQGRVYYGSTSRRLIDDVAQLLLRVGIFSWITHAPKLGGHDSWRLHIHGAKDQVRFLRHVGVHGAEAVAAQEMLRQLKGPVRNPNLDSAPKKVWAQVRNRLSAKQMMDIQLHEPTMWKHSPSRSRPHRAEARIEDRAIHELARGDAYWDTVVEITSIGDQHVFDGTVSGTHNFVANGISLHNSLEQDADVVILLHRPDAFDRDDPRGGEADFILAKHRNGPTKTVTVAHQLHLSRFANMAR

[3] = biological target: T4, Ubiquitin-conjugating enzyme E2 N (Homo sapiens, UniProt P61088); format: functional;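 further: Dose-response confirmation in a TR-FRET assay detecting UBC13-driven polyubiquitin chain formation, inhibition measured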
T4 sequence (P61088 whole entry): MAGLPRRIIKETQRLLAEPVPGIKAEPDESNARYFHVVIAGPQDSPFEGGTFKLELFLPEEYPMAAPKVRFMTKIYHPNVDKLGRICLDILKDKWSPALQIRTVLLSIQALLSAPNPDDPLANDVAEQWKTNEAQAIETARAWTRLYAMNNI

[4] = NIH-3T3 fibroblast cytotoxicity, dose response, cytotoxicity control, cell-based, fluorescence, Alamar Blue, secondary assay (AID 2327); format: functional;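 further: NIH-3T3 mouse fibroblasts cultured with fluconazole at 8 µg/mL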
[5] = fluconazole-exposed Candida albicans growth modulators – fluorescence, retest, confirmation (AID 2467); format: functional, cell-based
[6] = reduction of Shn3 3'UTR-driven luciferase in osteoblasts – cell-based, Clone20 osteoblasts, firefly luciferase, cherry-picked, dose response (AID 624132); format: functional;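 further: firefly luciferase luminescence from reporter carrying the Shn3 3'UTR in osteoblasts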
[7] = Luminescence Cell-Based Dose Retest to Confirm Inhibitors of Cancer Stem Cells. [Related pubchem assays (depositor defined):AID2717, AID2721]; format: functional; details: Homo sapiens
[8] = Luminescence Cell-Based Dose Confirmation HTS to Identify Inhibitors of Platelet Dense Granule Release. [Related pubchem assays: 1663 (Primary HTS), 1678 (Summary of Project)]; format: functional
[9] = biological target: Luciferin 4-monooxygenase (Photinus pyralis, UniProt P08659); experiment: inhibition of purified Photinus pyralis luciferase – biochemical, luminescence, dose response (AID 1891)
Chain of Luciferin 4-monooxygenase (P08659 whole entry): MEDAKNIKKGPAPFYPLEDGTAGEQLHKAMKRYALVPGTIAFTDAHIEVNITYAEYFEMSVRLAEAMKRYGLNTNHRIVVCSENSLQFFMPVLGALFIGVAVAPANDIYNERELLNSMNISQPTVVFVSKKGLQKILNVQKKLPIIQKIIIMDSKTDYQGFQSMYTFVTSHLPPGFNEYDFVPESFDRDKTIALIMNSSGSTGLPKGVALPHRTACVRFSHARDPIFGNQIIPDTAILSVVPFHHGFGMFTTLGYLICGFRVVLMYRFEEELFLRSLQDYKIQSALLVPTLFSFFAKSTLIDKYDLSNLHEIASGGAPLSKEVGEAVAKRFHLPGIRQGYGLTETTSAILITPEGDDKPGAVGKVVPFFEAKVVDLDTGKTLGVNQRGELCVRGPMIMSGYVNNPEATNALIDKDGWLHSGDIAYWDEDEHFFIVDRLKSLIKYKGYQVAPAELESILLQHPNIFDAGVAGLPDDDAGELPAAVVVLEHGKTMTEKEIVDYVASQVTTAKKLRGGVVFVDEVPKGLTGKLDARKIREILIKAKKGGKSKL

[10] = Trypanosoma cruzi growth suppression in host cells – NIH3T3 host cells, beta-gal luminescence, confirmation (AID 2044); format: functional, cell-based;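 further: intracellular parasites grown in NIH/3T3 mouse fibroblasts as host cells; luminescent beta-galactosidase reporter signal from transgenic T. cruzi replicating inside host cells; inhibitors lower the luminescence signal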
[11] = NIH3T3 cell viability loss – ATP luminescence, mouse fibroblasts, counter-screen, dose response (AID 2010); format: functional, cell-based;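 further: cells exposed to compound for about 90 hours before reading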
Paired box protein Pax-8 = Paired box protein Pax-8 (Homo sapiens, UniProt Q06710); experiment: PAX8 transcriptional activity inhibition in RMG-I – RMG-I cells, luciferase, cherry-pick, dose response (AID 687027); format: functional, cell-based;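 further: luciferase reporter driven by Pax8 target thyroperoxidase promoter measured by SteadyGlo luminescence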
Chain of Paired box protein Pax-8 (Q06710 whole entry, the tested form may be a part): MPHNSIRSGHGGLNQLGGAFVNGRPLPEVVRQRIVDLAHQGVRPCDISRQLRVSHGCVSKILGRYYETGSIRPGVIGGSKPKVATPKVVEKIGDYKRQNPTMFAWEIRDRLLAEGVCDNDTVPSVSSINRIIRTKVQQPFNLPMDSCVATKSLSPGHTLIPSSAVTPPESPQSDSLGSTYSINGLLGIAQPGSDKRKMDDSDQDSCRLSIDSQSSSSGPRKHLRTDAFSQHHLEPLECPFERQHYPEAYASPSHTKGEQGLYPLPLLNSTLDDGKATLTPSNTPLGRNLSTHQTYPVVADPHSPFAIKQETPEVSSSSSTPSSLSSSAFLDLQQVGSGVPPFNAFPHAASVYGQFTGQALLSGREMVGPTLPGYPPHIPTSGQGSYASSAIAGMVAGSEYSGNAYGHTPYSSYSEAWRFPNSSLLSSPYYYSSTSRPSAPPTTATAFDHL

[12] = HIV-1 AD8 envelope cell-cell fusion blockers – cherry-pick, dose response (AID 652062); format: functional, cell-based;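 further: luciferase signal from cell-cell fusion driven by HIV-1 clade B AD8 Env; potency is for inhibitors of fusion seen as a drop in luminescence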

## COc1cc2c(cc1OC)C(c1c(Cl)cccc1Cl)NC(=O)C2 (centres undefined)
[1]
  EC50: 10.9 µM (active)

## Cn1c(SCC(=O)NCC2CCCO2)ncc(C(=O)Nc2ccccc2)c1=O (centres undefined)
Protein RecA
  EC50: 3.38 µM (active)
[2]
  AC50: 28 µM (active)

## Oc1ccc2ccccc2c1CNc1ccccn1
[3]
  IC50: > 20 µM (inactive)

## COc1ccccc1NS(=O)(=O)c1cc(NC(=O)CCC(=O)c2cccs2)ccc1Cl
[4]
  EC50: 123 µM (active)
[5]
  EC50: 0.417 µM (active)

## Cc1c(CCOC(=O)CC23CC4CC(CC(C4)C2)C3)sc[n+]1CC(=O)c1ccc(Br)cc1
[3]
  IC50: > 20 µM (inactive)
[6]
  AC50: 12.9 µM (active)
[7]
  AC50: 2.42 µM (active)

## O=S(=O)(Nc1ccc(-c2ccc(N3CCOCC3)nn2)cc1)c1ccc(Cl)c(Cl)c1
[8]
  EC50: > 112 µM (not active)
[9]
  EC50: 35.3 µM (active)

## COc1ccc(C(=O)n2nnc3ccccc32)cc1Br
Protein RecA
  EC50: 30 µM (active)
[2]
  AC50: 24.6 µM (active)

## Cc1ccc(OCC(=O)N/N=C\c2c(C)[nH]n(-c3ccccc3)c2=O)c([N+](=O)[O-])c1
[4]
  EC50: > 150 µM (inactive)
[5]
  EC50: 6.77 µM (active)

## Nc1c(Cl)ncnc1N/N=C/c1cccc(O)c1
[8]
  EC50: 22 µM (active)
[9]
  EC50: 58.1 µM (active)

## CC1(C)CC(=O)C=C(Nc2ccc3c(c2)OCCO3)C1
[8]
  EC50: 11 µM (active)
[9]
  EC50: > 112 µM (not active)

## Oc1ccc(C2=NN=C(NCc3ccc4c(c3)OCO4)SC2)c(O)c1
[3]
  IC50: > 20 µM (inactive)

## C/C(CC(=O)Nc1ccc(Cl)cn1)=N\NC(=O)Cc1cccs1
Protein RecA
  EC50: 5.12 µM (active)
[2]
  AC50: 30.5 µM (active)

## O=C(CSc1cccc[n+]1[O-])CSc1cccc[n+]1[O-]
[4]
  EC50: > 160 µM (inactive)
[10]
  EC50: 6.09 µM (active)
[11]
  EC50: > 30 µM (not active)
[5]
  EC50: 3.9 µM (active)

## CN(C)/C=N/c1nccc(-c2cccs2)n1
[1]
  EC50: > 53 µM (inactive)

## CCN(C[C@H]1N[C@@](Cc2ccccc2)(C(=O)OC)[C@H]2C(=O)N(Cc3ccccc3)C(=O)[C@@H]12)C(=O)C1CCCCC1
[1]
  EC50: 5.33 µM (active)

## C/[N+]([O-])=C\c1ccc([N+](=O)[O-])o1
[4]
  EC50: > 160 µM (inactive)
[10]
  EC50: 0.54 µM (active)
[11]
  EC50: > 60 µM (not active)
[5]
  EC50: 0.885 µM (active)

## CC1=NN(C)C(=O)C1Cc1c(F)cccc1Cl (centres undefined)
Protein RecA
  EC50: 0.74 µM (active)
[2]
  AC50: 5.39 µM (active)

## Cc1cccc(OCC(=O)Oc2ccc(Cl)cc2)c1
Protein RecA
  EC50: 35.1 µM (active)
[2]
  AC50: 9.75 µM (active)

## Cc1ccc2nc(Cl)c3nnnn3c2c1
[4]
  EC50: 4.94 µM (inconclusive)
[5]
  EC50: 0.646 µM (active)

## O=C(Nc1ccc(C(=O)N2CCN(c3ccc(Cl)cc3)CC2)cc1)C1=CSCCO1
[8]
  EC50: > 112 µM (not active)
[9]
  EC50: 31.2 µM (active)

## COc1nc2ccccc2nc1OC
[8]
  EC50: > 112 µM (not active)
[9]
  EC50: > 112 µM (not active)

## CC[n+]1ccc2cc(OC)c(OC)cc2c1Cc1ccc(OC)c(OC)c1
Protein RecA
  EC50: > 380 µM (inactive)
[2]
  AC50: > 120 µM (inactive)

## COc1ccc(/C=C2/C(=O)N(c3cccc(F)c3)N=C2C)c(OC)c1
Protein RecA
  EC50: 44.6 µM (active)
[2]
  AC50: 4.14 µM (active)

## CCN(CC)CC(=O)n1c2c(c3ccccc31)CCCC2
[8]
  EC50: > 112 µM (not active)
[9]
  EC50: > 112 µM (not active)

## COC(=O)C1=C(c2ccc(F)cc2OCc2ccccc2)C[C@@H]2CC[C@H]1N2C(=O)NCc1ccc(C)cc1
Paired box protein Pax-8
  AC50: 15.1 µM (active)

## CN(C)Cc1cn(CC[C@@H]2CC[C@H](N)[C@H](CO)O2)nn1
[12]
  AC50: 22.9 µM (active)

## Cc1ccc(-n2nc(C)c(/C=N/NC(=O)c3ccc([N+](=O)[O-])cc3)c2O)c(C)c1
[4]
  EC50: 11.7 µM (active)
Protein RecA
  EC50: 21.2 µM (active)
[2]
  AC50: 6.38 µM (active)
[5]
  EC50: 1.71 µM (active)
